The Ki is a dissociation constant, usually derived from enzyme kinetics or from competition with a known ligand. A low value points to higher affinity.

In one assay the target is PCP receptor. In words: [3H]TCP radioreceptor assay (binding to PCP recognition sites). As to conditions: [3H]TCP approx. 1 nM, rat brain membranes; mean of at least two determinations. Set-up: species or system rat (male Sprague-Dawley, whole brain). As to the method: [^3 H]TCP Radioreceptor Assay
[^3 H]TCP binding to PCP recognition sites was performed as described by Vignon et al. Brain Research 1983, 280, 194-197. Male Sprague-Dawley rats were sacrificed by decapitation, and whole brains were homogenized in 10 volumes (wt/vol) of cold Tris-HCl buffer (50 mM, pH 7.7) using a Brinkmann Polytron (setting 6, 30 sec). The homogenate was centrifuged at 40,000×g for 10 min at 4° C. The supernatant was decanted, and the homogenization and centrifugation steps were repeated twice as described above. Following this, the pellet was resuspended in Tris-HCl (5 mM, pH 7.7) at a tissue concentration of 0.5-0.75 g/mL, and one mL aliquots were frozen at -70° C. until use. The binding characteristics for PCP recognition sites were not altered by the freezing of membrane suspensions.
On the day of the assay, membrane aliquots were thawed, resuspended in fresh 5 mM Tris-HCl buffer at a tissue concentration of 1 mg/mL, and stored on ice until use. Each assay tube contained 100 μl of [^3 H]TCP at a final concentration of approximately 1 nM, 100 μL of various concentrations of the compounds of interest, 500 μL of the tissue suspension and 300 μL of buffer to a final assay volume of 1 mL and a final protein concentration of 0.5 mg/tube. Non-specific binding was defined by addition of a final concentration of 100 μM PCP to blank tubes. All tubes were incubated at room temperature for 25 min before termination of the reaction by rapid filtration over Whatman GF/B glass fiber filters that had been presoaked in a solution of 0.5% polyethylenimine for at least 1 hr prior to use. Filters were washed with three 4 mL volumes of cold Tris buffer. Following addition of scintillation cocktail, the amount of bound radioactivity was determined by liquid scintillation spectrometry using a Beckman LS 5000TA liquid scintillation counter with an efficiency for tritium of approximately 55%. Inhibition constants (Ki values) were calculated using the EBDA/LIGAND program (McPherson, J. Pharmacol. Meth. 1985, 14, 213-228), purchased from ElsevierBiosoft, Inc. Results are reported as the Ki values (in nM) which are expressed as the mean of at least two separate determinations; or as a percent (%) inhibition of binding at 10 μM.
`[O-][Cl+3]([O-])([O-])[O-].c1ccc(C2(N3CCOCC3)CC3c4ccccc4C2c2cccc[n+]23)cc1` (stereo not drawn) [111(b), 6,11-Ethano-12-phenyl-12-(4-morpholinyl)-6,11-dihydrobenzo[b]quinolizinium perchlorate] gave a Ki of 37.8 nM.
In the case of `Cn1ccc(C2(c3ccn(C)n3)CC3c4ccccc4C2c2cccc[n+]23)n1` (stereo not drawn) [158(f), 6,11-ethano-12,12-di[3-(1-methylpyrazolyl)]-6,11-dihydrobenzo[b]quinolizinium chloride], the inhibition constant (Ki) was determined as 632 nM.
As for `COc1ncccc1C1(c2cccnc2OC)CC2c3ccccc3C1c1cccc[n+]12.[O-][Cl+3]([O-])([O-])[O-]` (stereo not drawn) [160(d), 6,11-ethano-12,12-di-(2-methoxypyridin-3-yl)-6,11-dihydrobenzo[b]quinolizinium perchlorate], the Ki was found to be 453 nM.
On to `c1ccc2c(c1)C1CC(c3cn[nH]c3)(c3cn[nH]c3)C2c2cccc[n+]21` (stereo not drawn) [161(d), 6,11-ethano-12,12-di(pyrazol-4-yl)]-6,11-dihydrobenzo[b]quinolizinium perchlorate], for which the Ki is 3680 nM.
The molecule `C=C1C2c3ccccc3C(c3cccc[n+]32)C1(c1ccoc1)c1ccoc1` (stereo not drawn) [162(d), 6,11-ethano-12,12-di(3-furyl)-13-methylene-6,11-dihydrobenzo[b]quinolizinium hexafluorophosphate] gave a Ki of 2.31 nM.
The molecule `COc1ccc[n+]2c1C1c3ccccc3C2CC1(c1ccoc1)c1ccoc1` (stereo not drawn) [164(e), 6,11-ethano-12,12-di(3-furyl)-1-methoxy-6,11-dihydrobenzo[b]quinolizinium chloride] had an inhibition constant (Ki) of 18.9 nM. Compared with the last molecule, the Ki is about 8.2-fold higher.
Take `CCOC(=O)C=CC(=O)Oc1cccc2c1C1c3cccc[n+]3C2CC1(c1ccoc1)c1ccoc1` (stereo not drawn) [167(c), 6,11-ethano-12,12-di(3-furyl)-10-(OC(O)CH=CHCO2 Et)-6,11-dihydrobenzo[b]quinolizinium perchlorate]: the affinity corresponds to a Ki of 7.68 nM.
As for `c1ccc2c(c1)C1CC(c3ncc[nH]3)(c3ncc[nH]3)C2c2cccc[n+]21` (stereo not drawn) [173(e), 6,11-ethano-12,12-di(imidazol-2-yl)-6,11-dihydrobenzo[b]quinolizinium chloride], the Ki stood at 1670 nM.
As for `Oc1cccc2c1C1c3cccc[n+]3C2CC1(c1cc[nH]n1)c1cc[nH]n1` (stereo not drawn) [175(b)], the Ki is 119 nM. Compared with the last molecule, the Ki is about 14-fold lower.
Take `COC(=O)C12CC(c3ccoc3)(c3ccoc3)C(c3ccccc31)c1cccc[n+]12` (stereo not drawn) [176(d), 6,11-ethano-12,12-di(3-furyl)-6-methoxycarbonyl-6,11-dihydrobenzo[b]quinolizinium chloride]: the Ki amounted to 39.4 nM.
With `CCOC(=O)CC(C)(C)C(=O)Oc1cccc2c1C1c3cccc[n+]3C2CC1(c1ccoc1)c1ccoc1` (stereo not drawn) [178(d), 6,11-ethano-12,12-di(3-furyl)-10-(OC(O)C(CH3)2 CH2 CO2Et)-6,11-dihydrobenzo[b]quinolizinium chloride], the affinity, expressed as Ki, was 1430 nM.
On the same count and under the same terms, under `COc1cccc2c1C1c3cccc[n+]3C2CC1(c1cc[nH]n1)c1cc[nH]n1` (stereo not drawn) [179(b), 6,11-ethano-12,12-di(pyrazolyl-3-yl]-10-methoxy-6,11-dihydrobenzo[b]quinolizinium chloride] stands 259 nM.
In turn, `c1ccc2c(c1)C1CC(c3ccoc3)(c3ccoc3)C2c2c3ccccc3cc[n+]21` (stereo not drawn) [180(g), 14,14-di(3-furyl)-8,13-ethano-8,13-dihydrodibenzo[a,g]quinolizinium chloride] had a Ki of 19.9 nM.
`OCc1cccc2c1C1c3cccc[n+]3C2CC1(c1ccoc1)c1ccoc1.[O-][Cl+3]([O-])([O-])[O-]` (stereo not drawn) [182(e), 6,11-ethano-12,12-di(3-furyl)-10-hydroxymethyl-6,11-dihydrobenzo[b]quinolizinium perchlorate] displayed a Ki of 159 nM.
`c1cc[n+]2c(c1)C1c3c(ccc4c3OCO4)C2CC1(c1ccoc1)c1ccoc1` (stereo not drawn) [183(c), 6,11-ethano-12,12-di(3-furyl)-9,10-methylenedioxy-6,11-dihydrobenzo[b]quinolizinium chloride] showed a Ki of 2.72 nM.
For the molecule `Brc1cc2cn[nH]c2c2cc3cccc[n+]3cc12` [186(g), 7-bromo-9,10-pyrazolo-benzo[b]quinolizinium hexafluorophosphate], the Ki came out at 122 nM.
Take `COc1c(Cl)ccc2c1C1c3cccc[n+]3C2CC1(c1ccoc1)c1ccoc1` (stereo not drawn) [187(g), 6,11-ethano-12,12-di(3-furyl)-9-chloro-10-methoxy-6,11-dihydrobenzo[b]quinolizinium chloride]: the affinity, expressed as Ki, was 63.7 nM. Compared with the last molecule, the Ki is about 1.9-fold lower.
`Oc1c(Cl)ccc2c1C1c3cccc[n+]3C2CC1(c1ccoc1)c1ccoc1` (stereo not drawn) [188(c), 6,11-ethano-12,12-di(3-furyl)-9-chloro-10-hydroxy-6,11-dihydrobenzo]b]quinolizinium chloride]: the Ki came out at 23.6 nM.
`Clc1ccc2c(c1)C1c3cccc[n+]3C2CC1(c1ccn[nH]1)c1ccn[nH]1` (stereo not drawn) [189(b), 6,11-ethano-12,12-di-(pyrazol-5-yl)]-9-chloro-6,11-dihydrobenzo[b]quinolizinium perchlorate] showed a Ki of 22.5 nM. This Ki and that of the molecule before are within 1.5-fold of each other.
Same read-out and setting: the figure for `Oc1cccc2c1C1c3cccc[n+]3C2CC1(c1cc[nH]c1)c1cc[nH]c1` (stereo not drawn) [190(b), 6,11-ethano-12,12-di(3-pyrrolyl)-10-hydroxy-6,11-dihydrobenzo[b]quinolizinium chloride] is 10.7 nM; for `Clc1cccc2[n+]1C1CC(c3ccoc3)(c3ccoc3)C2c2ccccc21.[O-][Cl+3]([O-])([O-])[O-]` (stereo not drawn) [192(g), 6,11-ethano-12,12-di(3-furyl)-4-chloro-6,11-dihydrobenzo[b]-quinolizinium perchlorate] it is 633 nM.
On the same count and under the same terms, under `CCCCCCCCOC(=O)CC(C)(C)C(=O)Oc1cccc2c1C1c3cccc[n+]3C2CC1(c1ccoc1)c1ccoc1` (stereo not drawn) [194(d), 12,12-di(3-furyl)-10-(OC(O)C(CH3)2 CH2 C(O)OOctyl)-6,11-ethano-6,11-dihydrobenzo[b]quinolizinium chloride] stands 71.3 nM; under `Fc1ccc[n+]2c1C1c3ccccc3C2CC1(c1ccoc1)c1ccoc1.[O-][Cl+3]([O-])([O-])[O-]` (stereo not drawn) [197(d), 6,11-ethano-12,12-di(3-furyl)-1-fluoro-6,11-dihydrobenzo[b]quinolizinium perchlorate], 13.8 nM; under `Fc1ccc2c(c1)C1c3cccc[n+]3C2CC1(c1cc[nH]n1)c1cc[nH]n1` (stereo not drawn) [198(b), 6,11-ethano-12,12-di-(pyrazol-3-yl)]-9-fluoro-6,11-dihydrobenzo-[b]quinolizinium chloride], 11.7 nM.
In turn, `c1ccc(C23c4ccccc4CC2C2c4ccccc4C3c3cccc[n+]32)cc1` (stereo not drawn) [Example 1F, 6,11[[2',3']-3'-phenyl-indanyl]6,11-dihydrobenzo[b]quinolizinium hexafluorophosphate] showed a Ki of 7.58 nM.
Still for that read-out and setting: under `c1ccc2c(c1)C1C3CCc4occc4C3(c3cc4ccccc4o3)C2c2cccc[n+]21` (stereo not drawn) [Example 10(c), 6,11[[5',4']-4'-(2-benzofuryl)-4',5',6',7'-tetrahydrobenzofuryl]6,11-dihydrobenzo[b]quinolizinium hexafluorophosphate] stands 1100 nM.

Still in this assay, the particulars now being: inhibition of [3H]TCP binding at 10 μM.
Consider `c1ccc2c(c1)C1CC(c3nc[nH]n3)(c3nc[nH]n3)C2c2cccc[n+]21` (stereo not drawn) [159(h), 6,11-ethano-12,12-di-[3-(1,2,4-triazolyl)]-6,11-dihydrobenzo[b]quinolizinium chloride], for which the “[3H]TCP percent inhibition @ 10 μm” value came to 31%.

These data come from patent US5554620A, “Substituted 6,11-ethano-6,11-dihydrobenzo[b] quinolizinium salts and compositions and methods of use thereof” (Sterling Winthrop Inc., priority 1994, dated 1996).
